In patent publication US6503926B2, “Chemokine receptor antagonists and methods of use therefor” (Millennium Pharmaceuticals, Inc., priority 1998, dated 2003):

The molecules below were run against T1, THP-1 cell membranes (RANTES / MIP-1α binding; chemokine receptor, believed CCR1) (Homo sapiens, UniProt P32246) (assay: Receptor binding assay, 125I-RANTES or 125I-MIP-1α binding to THP-1 cell membranes). Details: 125I-RANTES or 125I-MIP-1α as ligand, 60 min at room temperature, read-out: IC50 (inhibitor concentration required for 50% inhibition of specific binding).
T1 sequence (P32246 1-355): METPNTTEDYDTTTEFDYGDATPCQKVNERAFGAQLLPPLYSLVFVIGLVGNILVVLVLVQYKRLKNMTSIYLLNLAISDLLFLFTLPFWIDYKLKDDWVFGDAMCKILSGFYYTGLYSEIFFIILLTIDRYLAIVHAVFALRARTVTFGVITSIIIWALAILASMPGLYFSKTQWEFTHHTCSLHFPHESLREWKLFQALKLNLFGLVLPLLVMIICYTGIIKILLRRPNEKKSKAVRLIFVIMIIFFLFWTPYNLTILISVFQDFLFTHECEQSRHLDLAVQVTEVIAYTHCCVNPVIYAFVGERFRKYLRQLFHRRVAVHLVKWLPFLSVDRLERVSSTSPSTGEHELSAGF
Experimental: Membranes were prepared from THP-1 cells (ATCC #TIB202). Cells were harvested by centrifugation, washed twice with PBS (phosphate-buffered saline), and the cell pellets were frozen at -70 to -85° C. The frozen pellet was thawed in ice-cold lysis buffer consisting of 5 mM HEPES (N-2-hydroxyethylpiperazine-N'-2-ethane-sulfonic acid) pH 7.5, 2 mM EDTA (ethylenediaminetetraacetic acid), 5 μg/ml each aprotinin, leupeptin, and chymostatin (protease inhibitors), and 100 μg/ml PMSF (phenyl methane sulfonyl fluoride-also a protease inhibitor), at a concentration of 1 to 5×10^7 cells/ml. This procedure results in cell lysis. The suspension was mixed well to resuspend all of the frozen cell pellet. Nuclei and cell debris were removed by centrifugation of 400×g for 10 minutes at 4° C. The supernatant was transferred to a fresh tube and the membrane fragments were collected by centrifugation at 25,000×g for 30 minutes at 4° C. The supernatant was aspirated and the pellet was resuspended in freezing buffer consisting of 10 mM HEPES pH 7.5, 300 mM sucrose, 1 μg/ml each aprotinin, leupeptin, and chymostatin, and 10 μg/ml PMSF (approximately 0.1 ml per each 10^8 cells). All clumps were resolved using a minihomogenizer, and the total protein concentration was determined using a protein assay kit (Bio-Rad, Hercules, Calif., cat #500-0002). The membrane solution was then aliquoted and frozen at -70 to -85° C. until needed. Binding Assays-utilized the membranes described above. Membrane protein (2 to 20 μg total membrane protein) was incubated with 0.1 to 0.2 nM ^125I-labeled RANTES or MIP-1α with or without unlabeled competitor (RANTES or MIP-1α) or various concentrations of compounds. The binding reactions were performed in 60 to 100 μl of a binding buffer consisting of 10 mM HEPES pH 7.2, 1 mM CaCl2, 5 mM MgCl2, and 0.5% BSA (bovine serum albumin), for 60 min at room temperature. The binding reactions were terminated by harvesting the membranes by rapid filtration through glass fiber filters (GF/B or GF/C, Packard) which were presoaked in 0.3% polyethyleneimine. The filters were rinsed with approximately 600 μl of binding buffer containing 0.5 M NaCl, dried, and the amount of bound radioactivity was determined by scintillation counting in a Topcount beta-plate counter. […] Specific binding is defined as the total binding minus the non-specific binding; non-specific binding is the amount of cpm still detected in the presence of excess unlabeled Rantes or ^125MIP-1α.

Row | Structure (SMILES) | IC50 [nM]
1 | OC1(c2ccc(Cl)cc2)CCN(CCC=C(c2cccnc2)c2ccnc(Br)c2)CC1 [Example 4, 1-[4-(2-Bromo-4-pyridinyl)-4-(3-pyridinyl)-3-butenyl]-4-(4-chlorophenyl)piperidin-4-ol] | > 1000
2 | COc1ccc(OC)c(C(=CCCN2CCC(O)(c3ccc(Cl)cc3)CC2)c2cccnc2)c1 [Example 3, 4-(4-Chlorophenyl)-1-[4-(2,5-dimethoxyphenyl)-4-(3-pyridinyl)-3-butenyl]piperidin-4-ol] | < 1000
3 | COc1cccc(C(=CCCN2CCC(O)(c3ccc(Cl)cc3)CC2)c2cccnc2)c1 [Example 1, 4-(4-Chlorophenyl)-1-[4-(3-methoxyphenyl)-4-(3-pyridinyl)-3-butenyl]piperidin-4-ol] | < 1000
4 | OC1(c2ccc(Cl)cc2)CCN(CCC=C(c2ccccc2)c2cccnc2)CC1 [Example 2, 4-(4-Chlorophenyl)-1-[4-phenyl-4-(3-pyridinyl)-3-butenyl]piperidin-4-ol] | < 1000
